According to patent US7541368B2, “Pyrazoles as inhibitors of tumor necrosis factor” (Aventis Pharmaceuticals Inc., priority 2003, dated 2009):

system: TNF-alpha release in THP-1 cells; test: LPS-induced TNF-alpha release in THP-1 cells; format: cell-based; details: Homo sapiens, THP-1, LPS-stimulated THP-1 cells; read-out: 50% inhibition in the LPS-induced TNF-alpha release in THP-1 cells assay at concentrations within the range
Method in brief: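 Undifferentiated THP-1 monocytes (1×10^6 cells/ml, 1% FCS) preincubated 1 h at 37° C with compound (1×10^−9 to 1×10^−6 M, 0.3% DMSO), then stimulated with LPS (20 μg/ml) for 18 h. Supernatant TNF-alpha measured by sandwich ELISA (TMB read-out), interpolated from a log/log standard curve (0.125-16 ng/ml).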

IC50 [nM] | SMILES
10 to 500 | COc1cc(OC)cc(C(=O)N2CCC(Cc3cccc(NC(=O)Nc4cc(C(C)(C)C)nn4-c4ccc(C)cc4)c3)CC2)c1 [Compound A73, 1-(5-tert-Butyl-2-p-tolyl-2H-pyrazol-3-yl)-3-{3-[1-(3,5-dimethoxy-benzoyl)-piperidin-4-ylmethyl]-phenyl}-urea]
10 to 500 | Cc1ccc(-n2nc(C(C)(C)C)cc2NC(=O)Nc2ccc(CC3CCN(C(=O)c4ccc5ccccc5n4)CC3)cc2)cc1 [Compound A383, 1-(5-tert-Butyl-2-p-tolyl-2H-pyrazol-3-yl)-3-{4-[1-(quinoline-2-carbonyl)-piperidin-4-ylmethyl]-phenyl}-urea]
10 to 500 | Cc1ccc(-n2nc(C(C)(C)C)cc2NC(=O)Nc2ccc(CC3CCN(C(=O)c4cccnc4C)CC3)cc2)cc1 [Compound A251, 1-(5-tert-Butyl-2-p-tolyl-2H-pyrazol-3-yl)-3-{4-[1-(2-methyl-pyridine-3-carbonyl)-piperidin-4-ylmethyl]-phenyl}-urea]
10 to 500 | Cc1ccc(-n2nc(C(C)(C)C)cc2NC(=O)Nc2ccc(CC3CCN(C(=O)c4c(C)cc(C)cc4C)CC3)cc2)cc1 [Compound A216, 1-(5-tert-Butyl-2-p-tolyl-2H-pyrazol-3-yl)-3-{4-[1-(2,4,6-trimethyl-benzoyl)-piperidin-4-ylmethyl]-phenyl}-urea]
10 to 500 | COc1cccc(CC(=O)N2CCC(Cc3ccc(NC(=O)Nc4cc(C(C)(C)C)nn4-c4ccc(C)cc4)cc3)CC2)c1OC [Compound A213, 1-(5-tert-Butyl-2-p-tolyl-2H-pyrazol-3-yl)-3-(4-{1-[2-(2,3-dimethoxy-phenyl)-acetyl]-piperidin-4-ylmethyl}-phenyl)-urea]
10 to 500 | CCS(=O)(=O)N1CCC(Cc2ccc(NC(=O)Nc3cc(C(C)(C)C)nn3-c3ccc(C)cc3)cc2)CC1 [Compound A606, 1-(5-tert-Butyl-2-p-tolyl-2H-pyrazol-3-yl)-3-[4-(1-ethanesulfonyl-piperidin-4-ylmethyl)-phenyl]-urea]
10 to 500 | Cc1ccc(-n2nc(C(C)(C)C)cc2NC(=O)Nc2ccc(CC3CCN(C(=O)c4cnc5ccccc5n4)CC3)cc2)cc1 [Compound A257, 1-(5-tert-Butyl-2-p-tolyl-2H-pyrazol-3-yl)-3-{4-[1-(quinoxaline-2-carbonyl)-piperidin-4-ylmethyl]-phenyl}-urea]
10 to 500 | Cc1ccc(-n2nc(C(C)(C)C)cc2NC(=O)Nc2ccc(CC3CCN(C(=O)Cc4cccs4)CC3)cc2)cc1 [Compound A388, 1-(5-tert-Butyl-2-p-tolyl-2H-pyrazol-3-yl)-3-{4-[1-(2-thiophen-2-yl-acetyl)-piperidin-4-ylmethyl]-phenyl}-urea]
10 to 500 | Cc1ccc(-n2nc(C(C)(C)C)cc2NC(=O)Nc2ccc(CC3CCN(C(=O)c4ccco4)CC3)cc2)cc1 [Compound A237, 1-(5-tert-Butyl-2-p-tolyl-2H-pyrazol-3-yl)-3-{4-[1-(furan-2-carbonyl)-piperidin-4-ylmethyl]-phenyl}-urea]
10 to 500 | COC(=O)c1ccccc1S(=O)(=O)N1CCC(Cc2ccc(NC(=O)Nc3cc(C(C)(C)C)nn3-c3ccc(C)cc3)cc2)CC1 [Compound A609, 2-(4-{4-[3-(5-tert-Butyl-2-p-tolyl-2H-pyrazol-3-yl)-ureido]-benzyl}-piperidine-1-sulfonyl)-benzoic acid methyl ester]
10 to 500 | Cc1ccc(-n2nc(C(C)(C)C)cc2NC(=O)Nc2ccc(CC3CCN(C(=O)Cc4ccc(F)cc4)CC3)cc2)cc1 [Compound A314, 1-(5-tert-Butyl-2-p-tolyl-2H-pyrazol-3-yl)-3-(4-{1-[2-(4-fluoro-phenyl)-acetyl]-piperidin-4-ylmethyl}-phenyl)-urea]
10 to 500 | Cc1ccc(-n2nc(C(C)(C)C)cc2NC(=O)Nc2ccc(CC3CCN(C(=O)Nc4ccc5c(c4)OCO5)CC3)cc2)cc1 [Compound A429, 4-{4-[3-(5-tert-Butyl-2-p-tolyl-2H-pyrazol-3-yl)-ureido]-benzyl}-piperidine-1-carboxylic acid benzo[1,3]dioxol-5-ylamide]
10 to 500 | Cc1ccc(-n2nc(C(C)(C)C)cc2NC(=O)Nc2ccc(CC3CCN(C(=O)c4cccnc4Cl)CC3)cc2)cc1 [Compound A235, 1-(5-tert-Butyl-2-p-tolyl-2H-pyrazol-3-yl)-3-{4-[1-(2-chloro-pyridine-3-carbonyl)-piperidin-4-ylmethyl]-phenyl}-urea]
10 to 500 | Cc1ccc(-n2nc(C(C)(C)C)cc2NC(=O)Nc2cccc(CC3CCN(C(=O)c4ccnc5ccccc45)CC3)c2)cc1 [Compound A186, 1-(5-tert-Butyl-2-p-tolyl-2H-pyrazol-3-yl)-3-{3-[1-(quinoline-4-carbonyl)-piperidin-4-ylmethyl]-phenyl}-urea]
10 to 500 | Cc1ccc(-n2nc(C(C)(C)C)cc2NC(=O)Nc2cccc(CC3CCN(C(=O)c4csnn4)CC3)c2)cc1 [Compound A6, 1-(5-tert-Butyl-2-p-tolyl-2H-pyrazol-3-yl)-3-{3-[1-([1,2,3]thiadiazole-4-carbonyl)-piperidin-4-ylmethyl]-phenyl}-urea]
10 to 500 | Cc1ccc(-n2nc(C(C)(C)C)cc2NC(=O)Nc2cccc(CC3CCN(C(=O)c4cccc(C)n4)CC3)c2)cc1 [Compound A146, 1-(5-tert-Butyl-2-p-tolyl-2H-pyrazol-3-yl)-3-{3-[1-(6-methyl-pyridine-2-carbonyl)-piperidin-4-ylmethyl]-phenyl}-urea]
10 to 500 | Cc1ccc(-n2nc(C(C)(C)C)cc2NC(=O)Nc2cccc(CC3CCN(C(=O)c4cnc(C)cn4)CC3)c2)cc1 [Compound A140, 1-(5-tert-Butyl-2-p-tolyl-2H-pyrazol-3-yl)-3-{3-[1-(5-methyl-pyrazine-2-carbonyl)-piperidin-4-ylmethyl]-phenyl}-urea]
10 to 500 | Cc1ccc(-n2nc(C(C)(C)C)cc2NC(=O)Nc2ccc(CC3CCN(C(=O)c4ccnc5ccccc45)CC3)cc2)cc1 [Compound A385, 1-(5-tert-Butyl-2-p-tolyl-2H-pyrazol-3-yl)-3-{4-[1-(quinoline-4-carbonyl)-piperidin-4-ylmethyl]-phenyl}-urea]
10 to 500 | Cc1ccc(-n2nc(C(C)(C)C)cc2NC(=O)Nc2cccc(CC3CCN(C(=O)c4cnccn4)CC3)c2)cc1 [Compound A64, 1-(5-tert-Butyl-2-p-tolyl-2H-pyrazol-3-yl)-3-{3-[1-(pyrazine-2-carbonyl)-piperidin-4-ylmethyl]-phenyl}-urea]
10 to 500 | Cc1ccc(-n2nc(C(C)(C)C)cc2NC(=O)Nc2ccc(CC3CCN(C(=O)c4ccccn4)CC3)cc2)cc1 [Compound A380, 1-(5-tert-Butyl-2-p-tolyl-2H-pyrazol-3-yl)-3-{4-[1-(pyridine-2-carbonyl)-piperidin-4-ylmethyl]-phenyl}-urea]
10 to 500 | Cc1ccc(-n2nc(C(C)(C)C)cc2NC(=O)Nc2cccc(CC3CCN(C(=O)c4ccc5ccccc5n4)CC3)c2)cc1 [Compound A184, 1-(5-tert-Butyl-2-p-tolyl-2H-pyrazol-3-yl)-3-{3-[1-(quinoline-2-carbonyl)-piperidin-4-ylmethyl]-phenyl}-urea]
10 to 500 | Cc1ccc(-n2nc(C(C)(C)C)cc2NC(=O)Nc2cccc(CC3CCN(C(=O)c4ccc(Cl)s4)CC3)c2)cc1 [Compound A131, 1-(5-tert-Butyl-2-p-tolyl-2H-pyrazol-3-yl)-3-{3-[1-(5-chloro-thiophene-2-carbonyl)-piperidin-4-ylmethyl]-phenyl}-urea]
10 to 500 | Cc1ccc(-n2nc(C(C)(C)C)cc2NC(=O)Nc2ccc(CC3CCN(C(=O)c4ccc(-c5cnco5)cc4)CC3)cc2)cc1 [Compound A301, 1-(5-tert-Butyl-2-p-tolyl-2H-pyrazol-3-yl)-3-{4-[1-(4-oxazol-5-yl-benzoyl)-piperidin-4-ylmethyl]-phenyl}-urea]
10 to 500 | Cc1ccc(-n2nc(C(C)(C)C)cc2NC(=O)Nc2ccc(CC3CCN(C(=O)c4cnn(-c5ccccc5)c4C)CC3)cc2)cc1 [Compound A331, 1-(5-tert-Butyl-2-p-tolyl-2H-pyrazol-3-yl)-3-{4-[1-(5-methyl-1-phenyl-1H-pyrazole-4-carbonyl)-piperidin-4-ylmethyl]-phenyl}-urea]
10 to 500 | Cc1ccc(-n2nc(C(C)(C)C)cc2NC(=O)Nc2cccc(CC3CCN(C(=O)Cc4ccc(F)cc4F)CC3)c2)cc1 [Compound A26, 1-(5-tert-Butyl-2-p-tolyl-2H-pyrazol-3-yl)-3-(3-{1-[2-(2,4-difluoro-phenyl)-acetyl]-piperidin-4-ylmethyl}-phenyl)-urea]

SMILES | IC50 [nM]
Cc1ccc(-n2nc(C(C)(C)C)cc2NC(=O)Nc2cccc(CC3CC4CCC(C3)N4C(=O)Cc3ccc(F)cc3F)c2)cc1 (centres unmarked) [Compound A720, 1-(5-tert-Butyl-2-p-tolyl-2H-pyrazol-3-yl)-3-(3-{8-[2-(2,4-difluoro-phenyl)-acetyl]-8-aza-bicyclo[3.2.1]oct-3-ylmethyl}-phenyl)-urea] | 10 to 500
COc1cccc(C(=O)N2C3CCC2CC(Cc2cccc(NC(=O)Nc4cc(C(C)(C)C)nn4-c4ccc(C)cc4)c2)C3)c1OC (centres unmarked) [Compound A786, 1-(5-tert-Butyl-2-p-tolyl-2H-pyrazol-3-yl)-3-{3-[8-(2,3-dimethoxy-benzoyl)-8-aza-bicyclo[3.2.1]oct-3-ylmethyl]-phenyl}-urea] | 10 to 500
Cc1ccc(-n2nc(C(C)(C)C)cc2NC(=O)Nc2cccc(CC3CC4CCC(C3)N4C(=O)Cc3ccc(F)c(F)c3)c2)cc1 (centres unmarked) [Compound A719, 1-(5-tert-Butyl-2-p-tolyl-2H-pyrazol-3-yl)-3-(3-{8-[2-(3,4-difluoro-phenyl)-acetyl]-8-aza-bicyclo[3.2.1]oct-3-ylmethyl}-phenyl)-urea] | 10 to 500
CC(=O)NCC(=O)N1C2CCC1CC(Cc1cccc(NC(=O)Nc3cc(C(C)(C)C)nn3-c3ccc(C)cc3)c1)C2 (centres unmarked) [Compound A766, N-[2-(3-{3-[3-(5-tert-Butyl-2-p-tolyl-2H-pyrazol-3-yl)-ureido]-benzyl}-8-aza-bicyclo[3.2.1]oct-8-yl)-2-oxo-ethyl]-acetamide] | 10 to 500
